Measured values as given in US6737383B1, “Herbicidal oxadiazolidines” (priority 1999, dated 2004).

How the values were obtained:
[1] = test system: cocklebur; assay: Test B pre/postemergence cocklebur; format: in vivo, Xanthium strumarium
In short: (§1)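 Test chemicals in a non-phytotoxic solvent mixture with surfactant were sprayed preemergence onto planted seeds and postemergence onto plants 2 to 18 cm tall (1- to 4-leaf stage). After twelve to sixteen days in a greenhouse, injury was visually rated against untreated controls from 0 (no effect) to 10 (complete control).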

[2] = test system: soybean; assay: Test B pre/postemergence soybean; format: in vivo, Glycine max
In short: as §1

[3] = test system: bedstraw; assay: Test B pre/postemergence bedstraw; format: in vivo, Galium aparine; conditions: Postemergence
In short: as §1

[4] = test system: pigweed; assay: Test B pre/postemergence pigweed; format: in vivo, Amaranthus retroflexus
In short: as §1

[5] = test system: sugar beet; assay: Test B pre/postemergence sugar beet; format: in vivo, Beta vulgaris
In short: as §1

[6] = test system: giant foxtail; assay: Test B pre/postemergence giant foxtail; format: in vivo, Setaria faberii
In short: as §1

[7] = test system: wheat; assay: Test B pre/postemergence wheat; format: in vivo, Triticum aestivum
In short: as §1

[8] = test system: surinam grass; assay: Test B pre/postemergence surinam grass; format: in vivo, Brachiaria decumbens
In short: as §1

[9] = test system: bamyardgrass; assay: Test B flood test barnyardgrass; format: in vivo, Echinochloa crus-galli
In short: (§2)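 Read-out is a visual response score from 0 (no effect) to 10 (complete control), assigned by comparison with untreated controls. Treatment was applied at the 2-leaf stage, and plants stayed in the greenhouse for twelve to sixteen days before scoring.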

[10] = test system: corn; assay: Test B pre/postemergence corn; format: in vivo, Zea mays
In short: as §1

[11] = test system: purple nutsedge; assay: Test B pre/postemergence purple nutsedge; format: in vivo, Cyperus rotundus
In short: as §1

[12] = test system: crabgrass; assay: Test B pre/postemergence crabgrass; format: in vivo, Digitaria sanguinalis
In short: as §1

[13] = test system: rape; assay: Test B pre/postemergence rape; format: in vivo, Brassica napus
In short: as §1

[14] = test system: wild oat; assay: Test B pre/postemergence wild oat; format: in vivo, Avena fatua
In short: as §1

[15] = test system: blackgrass; assay: Test B pre/postemergence blackgrass; format: in vivo, Alopecurus myosuroides
In short: as §1

[16] = test system: smallflower flatsedge; assay: Test B flood test smallflower flatsedge; format: in vivo, Cyperus difformis
In short: as §2

[17] = test system: velvetleaf; assay: Test B pre/postemergence velvetleaf; format: in vivo, Abutilon theophrasti
In short: as §1

[18] = test system: rice; assay: Test B flood test rice; format: in vivo, Oryza sativa
In short: as §2

[19] = test system: morningglory; assay: Test B pre/postemergence morningglory; format: in vivo, Ipomoea hederacea
In short: as §1

[20] = test system: duck salad; assay: Test B flood test duck salad; format: in vivo, Heteranthera limosa
In short: as §2

[21] = Postemergence, Rate 125 g/ha, scale 0 to 10, 0 is no effect, 10 is complete control
[22] = Postemergence, Rate 250 g/ha, scale 0 to 10, 0 is no effect, 10 is complete control
[23] = Postemergence, Rate 500 g/ha, scale of 0 to 10 where 0 is no effect and 10 is complete control
[24] = Preemergence, Rate 62 g/ha, scale 0 to 10 (0 no effect, 10 complete control)
[25] = Preemergence, Rate 125 g/ha, scale of 0 to 10 where 0 is no effect and 10 is complete control
[26] = Preemergence, Rate 250 g/ha, scale 0 to 10, 0 is no effect, 10 is complete control
[27] = Preemergence, Rate 500 g/ha, scale 0 to 10, 0 is no effect, 10 is complete control
[28] = Rate 62 g/ha, Postemergence, scale of 0 to 10 where 0 is no effect and 10 is complete control
[29] = Preemergence, Rate 250 g/ha, scale of 0 to 10 where 0 is no effect and 10 is complete control
[30] = Rate 62 g/ha, flood test species, Pre-emergence, visual evaluation after twelve to sixteen days
[31] = Rate 125 g/ha, under heading Pre-emergence, flood test species, visual evaluation after twelve to sixteen days
[32] = Rate 250 g/ha, Pre-emergence, flood-test species, scale 0 to 10, 0 is no effect, 10 is complete control
[33] = Rate 500 g/ha, Pre-emergence, flood test species, scale 0 to 10 (0 no effect, 10 complete control)

SMILES: CC(C)N(C(=O)n1oc(=O)n(C(C)CCl)c1=O)c1ccccc1 (centres unmarked) [Compound 411]
- Plant response rating, Cocklebur [1, 21]: 1
- Plant response rating, Cocklebur [1, 22]: 3
- Cocklebur plant response rating [1, 23]: 3
- Plant response rating, Cocklebur [1, 24]: 0
- Plant response rating, Cocklebur [1, 25]: 0
- Cocklebur plant response rating [1, 26]: 0
- Cocklebur plant response rating [1, 27]: 0
- Cocklebur plant response rating [1, 28]: 1
- Plant response rating, Soybean [2, 22]: 5
- Soybean plant response rating [2, 23]: 7
- Plant response rating, Soybean [2, 24]: 0
- Plant response rating, Soybean [2, 25]: 0
- Soybean plant response rating [2, 26]: 0
- Soybean plant response rating [2, 27]: 1
- Plant response rating, Bedstraw ([3]; Rate 250 g/ha, scale 0 to 10, 0 is no effect, 10 is complete control): 7
- Bedstraw plant response rating ([3]; Rate 500 g/ha, scale of 0 to 10 where 0 is no effect and 10 is complete control): 8
- Plant response rating, Redroot pigweed [4, 22]: 7
- Redroot pigweed plant response rating [4, 23]: 9
- Plant response rating, Redroot pigweed [4, 24]: 3
- Plant response rating, Redroot pigweed [4, 25]: 8
- Redroot pigweed plant response rating [4, 26]: 10
- Redroot pigweed plant response rating [4, 27]: 10
- Plant response rating, Sugarbeets [5, 22]: 4
- Sugarbeets plant response rating [5, 23]: 7
- Plant response rating, Sugarbeets [5, 24]: 5
- Plant response rating, Sugarbeets [5, 25]: 8
- Sugarbeets plant response rating [5, 26]: 8
- Sugarbeets plant response rating [5, 27]: 8
- Plant response rating, Giant foxtail [6, 21]: 9
- Plant response rating, Giant foxtail [6, 22]: 9
- Giant foxtail plant response rating [6, 23]: 9
- Plant response rating, Giant foxtail [6, 24]: 10
- Plant response rating, Giant foxtail [6, 25]: 10
- Giant foxtail plant response rating [6, 26]: 10
- Giant foxtail plant response rating [6, 27]: 10
- Giant foxtail plant response rating [6, 28]: 6
- Wheat plant response rating [7, 23]: 8
- Plant response rating, Wheat [7, 24]: 0
- Plant response rating, Wheat [7, 25]: 4
- Wheat plant response rating [7, 26]: 7
- Wheat plant response rating [7, 27]: 10
- Plant response rating, B. signalgrass [8, 21]: 3
- Plant response rating, B. signalgrass [8, 22]: 5
- B. signalgrass plant response rating [8, 23]: 9
- Plant response rating, B. signalgrass [8, 24]: 0
- Plant response rating, B. signalgrass [8, 25]: 3
- B. signalgrass plant response rating [8, 29]: 7
- B. signalgrass plant response rating ([8]; Preemergence, Rate 500 g/ha, scale of 0 to 10 where 0 is no effect and 10 is complete control): 10
- B. signalgrass plant response rating [8, 28]: 0
- Plant response rating, Barnyardgrass (0 to 10 scale, 0 is no effect, 10 is complete control) [9, 30]: 0
- Barnyardgrass plant response rating (0 to 10 scale, 0 is no effect, 10 is complete control) [9, 31]: 8
- Barnyardgrass plant response rating [9, 32]: 9
- Barnyardgrass plant response rating [9, 33]: 9
- Plant response rating, Corn [10, 21]: 0
- Plant response rating, Corn [10, 22]: 0
- Corn plant response rating [10, 23]: 4
- Plant response rating, Corn [10, 24]: 0
- Plant response rating, Corn [10, 25]: 2
- Corn plant response rating [10, 26]: 8
- Corn plant response rating [10, 27]: 9
- Corn plant response rating [10, 28]: 0
- Plant response rating, Nutsedge [11, 22]: 0
- Nutsedge plant response rating [11, 23]: 0
- Plant response rating, Nutsedge [11, 24]: 0
- Plant response rating, Nutsedge [11, 25]: 0
- Nutsedge plant response rating [11, 26]: 0
- Nutsedge plant response rating [11, 27]: 2
- Plant response rating, Crabgrass [12, 21]: 4
- Plant response rating, Crabgrass [12, 22]: 8
- Crabgrass plant response rating [12, 23]: 8
- Plant response rating, Crabgrass [12, 24]: 9
- Plant response rating, Crabgrass [12, 25]: 10
- Crabgrass plant response rating [12, 26]: 10
- Crabgrass plant response rating [12, 27]: 10
- Crabgrass plant response rating [12, 28]: 4
- Plant response rating, Rape [13, 22]: 7
- Rape plant response rating [13, 23]: 8
- Plant response rating, Rape [13, 24]: 2
- Plant response rating, Rape [13, 25]: 8
- Rape plant response rating [13, 26]: 9
- Rape plant response rating [13, 27]: 10
- Wild oats plant response rating [14, 23]: 9
- Plant response rating, Wild oats [14, 24]: 0
- Plant response rating, Wild oats [14, 25]: 5
- Wild oats plant response rating [14, 26]: 8
- Wild oats plant response rating [14, 27]: 10
- Plant response rating, Blackgrass [15, 22]: 9
- Blackgrass plant response rating [15, 23]: 9
- Plant response rating, Blackgrass [15, 24]: 6
- Plant response rating, Blackgrass [15, 25]: 7
- Blackgrass plant response rating [15, 29]: 9
- Blackgrass plant response rating [15, 27]: 10
- Plant response rating, S. Flatsedge (0 to 10 scale, 0 is no effect, 10 is complete control) [16, 30]: 0
- S. Flatsedge plant response rating (0 to 10 scale, 0 is no effect, 10 is complete control) [16, 31]: 0
- S. Flatsedge plant response rating [16, 32]: 9
- S. Flatsedge plant response rating [16, 33]: 9
- Plant response rating, Velvetleaf [17, 22]: 4
- Velvetleaf plant response rating [17, 23]: 6
- Plant response rating, Velvetleaf [17, 24]: 2
- Plant response rating, Velvetleaf [17, 25]: 5
- Velvetleaf plant response rating [17, 26]: 6
- Velvetleaf plant response rating [17, 27]: 8
- Plant response rating, Rice (0 to 10 scale, 0 is no effect, 10 is complete control) [18, 30]: 0
- Rice plant response rating (0 to 10 scale, 0 is no effect, 10 is complete control) [18, 31]: 0
- Rice plant response rating [18, 32]: 0
- Rice plant response rating [18, 33]: 0
- Plant response rating, Morningglory [19, 22]: 6
- Morningglory plant response rating [19, 23]: 6
- Plant response rating, Morningglory [19, 24]: 0
- Plant response rating, Morningglory [19, 25]: 1
- Morningglory plant response rating [19, 26]: 2
- Morningglory plant response rating [19, 27]: 4
- Plant response rating, Ducksalad (0 to 10 scale, 0 is no effect, 10 is complete control) [20, 30]: 0
- Ducksalad plant response rating (0 to 10 scale, 0 is no effect, 10 is complete control) [20, 31]: 0
- Ducksalad plant response rating [20, 32]: 2
- Ducksalad plant response rating [20, 33]: 2
